From US12358948B2, “Neurotensinergic agonists and methods of using same preventing or treating pain” (priority 2019, dated 2025)
Where a SMILES comes first, the peptide text is derived from it. Bridges are numbered along the chain shown (N, C = ends). [ ]: non-standard residue; d: D form. Phe(3-I) = N[C@@H](Cc1cccc(I)c1)C(=O)O; hTyr = N[C@@H](CCc1ccc(O)cc1)C(=O)O; hCha = N[C@@H](CCC1CCCCC1)C(=O)O; Hpg = N[C@H](C(=O)O)c1ccc(O)cc1; AllylGly = C=CC[C@H](N)C(=O)O; Aic = NC1(C(=O)O)Cc2ccccc2C1; Pen = CC(C)(S)[C@H](N)C(=O)O; hLys = NCCCCC[C@H](N)C(=O)O; Orn = NCCC[C@H](N)C(=O)O; Dab = NCC[C@H](N)C(=O)O; Nva = CCC[C@H](N)C(=O)O; Dap = NC[C@H](N)C(=O)O

Columns and labels:
[1] = target: T1, hNTS1 receptor (Homo sapiens, UniProt P30989); experiment: Competitive radioligand binding assay on the hNTS1 receptor; conditions: displacement of 125I-[Tyr3]-NT, membranes of CHO-K1 cells expressing hNTS1; read-out: IC50 NTS1
T1 construct: membranes prepared from them
T1 sequence (P30989 whole entry): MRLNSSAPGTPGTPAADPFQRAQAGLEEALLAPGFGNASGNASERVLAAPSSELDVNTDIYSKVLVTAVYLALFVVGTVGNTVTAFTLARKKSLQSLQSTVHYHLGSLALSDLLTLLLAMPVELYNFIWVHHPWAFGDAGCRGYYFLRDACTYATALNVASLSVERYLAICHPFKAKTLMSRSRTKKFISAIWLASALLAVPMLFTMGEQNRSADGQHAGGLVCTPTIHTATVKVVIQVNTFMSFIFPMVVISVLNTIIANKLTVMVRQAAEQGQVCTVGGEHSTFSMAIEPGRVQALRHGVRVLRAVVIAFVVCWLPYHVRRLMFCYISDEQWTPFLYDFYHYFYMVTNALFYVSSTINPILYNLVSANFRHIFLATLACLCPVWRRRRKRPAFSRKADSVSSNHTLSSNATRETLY
Method: (§1) CHO-K1 (Chinese Hamster Ovary) cells stably expressing hNTS1 and 1321N1 cells stably expressing hNTS2 (ES-690-C and ES-691-C from PerkinElmer, Montréal, Canada) were cultured respectively in Ham's F12 and in DMEM culture media. Culture media were supplemented with 10% FBS, 100 U/mL penicillin, 100 μg/mL streptomycin, 20 mM HEPES, and 0.4 mg/mL G418 at 37° C. in a humidified chamber at 5% CO2.
(§2) The cells expressing hNTS1 were frozen when they reached 80% confluency. They were scrapped off the dish with 10 mM Tris buffer, 1 mM EDTA, pH 7.5 and centrifuged at 15,000 g for 5 min at 4° C. The pellet was then re-suspended in 1 mL binding buffer. The cells expressing hNTS2 were also frozen when they reached 80% confluency. They were scraped off the dish with PBS, 0.5 mM EDTA, pH 7.5 and sonicated for 5 minutes (pulse 30 s/5 s off, amplitude 40%). They were ultracentrifuged at 100 000 g for 60 minutes at 4° C. The pellet was re-suspended in 1 mL freezing buffer (PBS, glycerol, 0.5 mM EDTA), sonicated for 1 minute (pulse 30 s/5 s off, amplitude 50%) and further diluted in binding buffer. Competitive radioligand binding experiments were performed by incubating 15 μg of cell membranes expressing the hNTS1 receptor with […] of ^125I-[Tyr^3]-NT (2200 Ci/mmol) or 50 μg of cell membranes expressing the hNTS2 receptor with […] of ^125I-[Tyr^3]-NT in binding buffer (50 mM Tris-HCl, pH 7.5, 0.2% BSA) in the presence of increasing concentrations of analogues ranging from 10^−11 to 10^−4 M for 60 min at 25° C. After incubation, the binding reaction mixture was transferred in PEI-coated 96-well filter plates (glass fiber filters GF/B, Millipore, Billerica, MA). Reaction was terminated by filtration, and plates were washed three times with 200 μL ice-cold binding buffer. Glass filters were then counted using a γ-counter (2470 Wizard2, PerkinElmer, Mississauga, Ontario, Canada). Non-specific binding was measured in the presence of 10^−5 M unlabeled NT (8-13) and represented less than 5% of total binding. IC50 values were determined from competition curves as the unlabeled ligand concentration inhibiting 50% of ^125I-[Tyr^3]-NT-specific binding.
(§3) Competitive radioligand binding data were plotted using the nonlinear regression One-site-Fit Log(IC50) and represented the mean±SEM of at least three independent experiments in triplicates.

[2] = target: T2, hNTS2 receptor (Homo sapiens, UniProt O95665); experiment: Competitive radioligand binding assay on the hNTS2 receptor; conditions: for IC50: displacement of 125I-[Tyr3]-NT, membranes of 1321N1 cells expressing hNTS2, read-out: IC50 NTS2 (converted); for Selectivity: ratio IC50 for NTS1 : IC50 for NTS2
T2 construct: membranes prepared from them
T2 sequence (O95665 whole entry): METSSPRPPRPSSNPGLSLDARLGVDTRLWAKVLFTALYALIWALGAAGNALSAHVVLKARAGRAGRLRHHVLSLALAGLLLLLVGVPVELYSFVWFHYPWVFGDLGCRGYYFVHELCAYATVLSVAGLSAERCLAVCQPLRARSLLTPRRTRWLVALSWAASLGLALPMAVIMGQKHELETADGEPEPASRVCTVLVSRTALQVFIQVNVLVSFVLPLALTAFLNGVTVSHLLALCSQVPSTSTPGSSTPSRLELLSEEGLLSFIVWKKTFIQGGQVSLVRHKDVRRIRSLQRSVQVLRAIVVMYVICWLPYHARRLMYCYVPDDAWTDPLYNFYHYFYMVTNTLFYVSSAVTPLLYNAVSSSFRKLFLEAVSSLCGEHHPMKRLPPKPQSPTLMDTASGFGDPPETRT
Method: as §1, §2, §3

| Compound | IC50 [1] [µM] | IC50 [2] [µM] | Selectivity [2] |
| --- | --- | --- | --- |
| CC(C)C[C@H](NC(=O)[C@H](Cc1c[nH]c2ccccc12)NC(=O)[C@@H]1CC=CC[C@H](N)C(=O)N[C@@H](CCCCN)C(=O)N[C@@H](CCCCN)C(=O)N1)C(=O)O [compound 16, c[G(All)KKG(All)]WL] (H-[AllylGly]KK[AllylGly]WL-OH; staple 1-4) | > 100 | 0.0536 | 1865 |
| CC(C)C[C@H](NC(=O)[C@H](Cc1ccc(O)cc1)NC(=O)[C@@H]1CC=CC[C@H](N)C(=O)N[C@@H](CCCCCN)C(=O)N[C@@H](CCCCCN)C(=O)N1)C(=O)O [compound 151, c[G(All)K(homo)K (homo)G(All)]YL] (H-[AllylGly][hLys][hLys][AllylGly]YL-OH; staple 1-4) | > 100 | 0.104 | 962 |
| CCC[C@@H]1NC(=O)[C@H](CCCCN)NC(=O)[C@@H](N)CC=CC[C@@H](C(=O)N[C@@H](Cc2ccc(O)cc2)C(=O)N[C@@H](CC(C)C)C(=O)O)NC1=O [compound 58, c[G(All)KNvaG(All)]YL] (H-[AllylGly]K[Nva][AllylGly]YL-OH; staple 1-4) | > 100 | 0.729 | >137 |
| CC(C)C[C@H](NC(=O)[C@H](CCc1ccc(O)cc1)NC(=O)[C@@H]1CC=CC[C@H](N)C(=O)N[C@@H](CCCCN)C(=O)N[C@@H](CCCCN)C(=O)N1)C(=O)O [compound 126, c[G(All)KKG(All)]homoYL] (H-[AllylGly]KK[AllylGly][hTyr]L-OH; staple 1-4) | > 100 | 0.0817 | 1224 |
| CC(C)C[C@H](NC(=O)[C@H](Cc1ccc(O)cc1)NC(=O)C1(C)CC=CCCC[C@H](N)C(=O)N[C@@H](CCCCN)C(=O)N[C@@H](CCCCN)C(=O)N1)C(=O)O (single isomer, unassigned) [compound 92, c[G(All)KKG*(alpha-Me-(4-Pentenyl))]YL] | > 100 | 0.511 | >196 |
| CC(C)C[C@H](NC(=O)[C@H](Cc1ccc(O)cc1)NC(=O)[C@@H]1CCCNC(=O)C[C@H](N)C(=O)N[C@@H](CCCCN)C(=O)N[C@@H](CCCCN)C(=O)N1)C(=O)O [compound 107, c[DKKOrn]YL] (H-DKK[Orn]YL-OH; lactam 1-4) | > 100 |  |  |
| CC(C)C[C@H](NC(=O)[C@@H](NC(=O)[C@@H]1CC=CC[C@H](N)C(=O)N[C@@H](CCCCN)C(=O)N[C@@H](CCCCN)C(=O)N1)c1ccc(O)cc1)C(=O)O [compound 125] (H-[AllylGly]KK[AllylGly][Hpg]L-OH; staple 1-4) | > 100 | 1.8 | 56 |
| CC(C)C[C@H](NC(=O)[C@H](Cc1ccc(O)cc1)NC(=O)[C@@H]1CCCCNC(=O)CC[C@H](N)C(=O)N[C@@H](CCCCN)C(=O)N[C@@H](CCCCN)C(=O)N1)C(=O)O [compound 108, c[EKKK]YL] (H-EKKKYL-OH; lactam 1-4) | > 100 |  |  |
| CC(C)C[C@H](NC(=O)[C@H](Cc1ccc(O)cc1)NC(=O)[C@@H]1CC=CC[C@H](N)C(=O)N[C@@H](CCCCN)C(=O)N[C@@H](CCN)C(=O)N1)C(=O)O [compound 52, c[G(All)KDabG(All)]YL] (H-[AllylGly]K[Dab][AllylGly]YL-OH; staple 1-4) | > 100 | 0.244 | >409.3 |
| CC(C)C[C@H](NC(=O)[C@H](Cc1ccc(O)cc1)NC(=O)[C@@H]1CCCCNC(=O)C[C@H](N)C(=O)N[C@@H](CCCCN)C(=O)N[C@@H](CCCCN)C(=O)N1)C(=O)O [compound 109, c[DKKK]YL] (H-DKKKYL-OH; lactam 1-4) | > 100 |  |  |

More lines, now with the values ahead:

| IC50 [1] [µM] | IC50 [2] [µM] | Selectivity [2] | Compound |
| --- | --- | --- | --- |
| > 100 | 8.18 | >12.2 | CC(C)C[C@H](NC(=O)[C@H](Cc1ccc(O)cc1)NC(=O)[C@@H]1CCC(=O)NC[C@H](N)C(=O)N[C@@H](CCCCN)C(=O)N[C@@H](CCCCN)C(=O)N1)C(=O)O [compound 98, c[DapKKE]YL] (H-[Dap]KKEYL-OH; lactam 1-4) |
| > 100 | 1.2 | 81 | CC(C)C[C@H](NC(=O)[C@H](Cc1ccc(O)cc1)NC(=O)[C@@H]1CSSC(C)(C)[C@H](N)C(=O)N[C@@H](CCCCN)C(=O)N[C@@H](CCCCN)C(=O)N1)C(=O)O [compound 154, c[PenKKC]YL] (H-[Pen]KKCYL-OH; disulfide 1-4) |
| > 100 | 0.0323 | >3097 | CC(C)C[C@H](NC(=O)[C@H](Cc1cccc(I)c1)NC(=O)[C@@H]1CC=CC[C@H](N)C(=O)N[C@@H](CCCCN)C(=O)N[C@@H](CCCCN)C(=O)N1)C(=O)O [compound 117, c[G(All)KKG(All)]F(3-iodo)L] (H-[AllylGly]KK[AllylGly][Phe(3-I)]L-OH; staple 1-4) |
| > 100 | 10 | 10 | CC(C)C[C@H](NC(=O)C1(NC(=O)[C@@H]2CC=CC[C@H](N)C(=O)N[C@@H](CCCCN)C(=O)N[C@@H](CCCCN)C(=O)N2)Cc2ccccc2C1)C(=O)O [compound 164, c[G(All)KKG(All)]G(indanyl)L] (H-[AllylGly]KK[AllylGly][Aic]L-OH; staple 1-4) |
| > 100 | 22.8 | >4.4 | CC(C)C[C@H](NC(=O)[C@H](Cc1ccc(O)cc1)NC(=O)[C@@H]1CC(=O)NC[C@H](N)C(=O)N[C@@H](CCCCN)C(=O)N[C@@H](CCCCN)C(=O)N1)C(=O)O [compound 94, c[DapKKD]YL] (H-[Dap]KKDYL-OH; lactam 1-4) |
| > 100 | 0.00774 | >12 920 | NCCCC[C@@H]1NC(=O)[C@H](CCCCN)NC(=O)[C@@H](N)CC=CC[C@@H](C(=O)N[C@@H](Cc2ccc(O)cc2)C(=O)N[C@@H](CCC2CCCCC2)C(=O)O)NC1=O [compound 64, c[G(All)KKG(All)]YA(homoChA)] (H-[AllylGly]KK[AllylGly]Y[hCha]-OH; staple 1-4) |
| > 100 | 240 | > 2.4 | CC(C)C[C@@H](NC(=O)[C@H](Cc1ccc(O)cc1)NC(=O)[C@@H]1CC=CC[C@H](N)C(=O)N[C@@H](CCCCN)C(=O)N[C@@H](CCCCN)C(=O)N1)C(=O)O [compound 38, c[G(All)KKG(All)]YL*] (H-[AllylGly]KK[AllylGly]Y[dL]-OH; staple 1-4) |
| > 100 | 0.187 | 533 | CC(C)C[C@H](NC(=O)[C@H](Cc1ccc(O)cc1)NC(=O)[C@@H]1CC=CC[C@H](N)C(=O)N[C@@H](CCCCCN)C(=O)N[C@@H](CCCCN)C(=O)N1)C(=O)O [compound 150, c[G(All)homolysineKG(All)]YL] (H-[AllylGly][hLys]K[AllylGly]YL-OH; staple 1-4) |
| > 100 | 11 | >9 | CC(C)C[C@H](NC(=O)[C@H](Cc1ccc(O)cc1)NC(=O)[C@@H]1CCC(=O)NCC[C@H](N)C(=O)N[C@@H](CCCCN)C(=O)N[C@@H](CCCCN)C(=O)N1)C(=O)O [compound 99, c[DabKKE]YL] (H-[Dab]KKEYL-OH; lactam 1-4) |
| > 1000 | 1.4 | 7 | CC(C)C[C@H](NC(=O)[C@H](Cc1ccc(O)cc1)NC(=O)[C@@H]1CSSC[C@H](N)C(=O)N[C@@H](CCCCN)C(=O)N[C@@H](CCCCN)C(=O)N1)C(=O)O [compound 152, c[CKKC]YL] (H-CKKCYL-OH; disulfide 1-4) |
| > 100 |  |  | CC(=O)Oc1ccc(C[C@H](NC(=O)[C@@H]2CC=CC[C@H](N)C(=O)N[C@@H](CCCCN)C(=O)N[C@@H](CCCCN)C(=O)N2)C(=O)N[C@@H](CC(C)C)C(=O)O)cc1 [compound 15, c[G(All)KKG(All)]Y(OAc)L] (H-[AllylGly]KK[AllylGly]Y(Ac)L-OH; staple 1-4) |
| > 100 |  |  | CC(C)C[C@H](NC(=O)[C@H](Cc1ccc(O)cc1)NC(=O)[C@@H]1CNC(=O)CC[C@H](N)C(=O)N[C@@H](CCCCN)C(=O)N[C@@H](CCCCN)C(=O)N1)C(=O)O [compound 102, c[EKKDap]YL] (H-EKK[Dap]YL-OH; lactam 1-4) |
| > 100 |  |  | CC(C)C[C@H](NC(=O)[C@H](Cc1ccc(O)cc1)NC(=O)[C@@H]1CCCNC(=O)CC[C@H](N)C(=O)N[C@@H](CCCCN)C(=O)N[C@@H](CCCCN)C(=O)N1)C(=O)O [compound 106, c[EKKOrn]YL] (H-EKK[Orn]YL-OH; lactam 1-4) |
